Measured values reported in ChEMBL document CHEMBL1201862, “PubChem BioAssay data set” (2004).
Activity calls are given as the source filed them.

Legend:
Cannabinoid receptor 1 [1] = biological target: T1, Cannabinoid receptor 1 (Homo sapiens, UniProt P21554); assay: SAR analysis of antagonists of the Cannabinoid Receptor 1 using an Image-Based Assay - Set 4. [Related pubchem assays (depositor defined):AID2013, AID2026]; assay type: functional
Cannabinoid receptor 2 [2] = biological target: T2, Cannabinoid receptor 2 (Homo sapiens, UniProt P34972); assay: SAR analysis of agonists of the Cannabinoid Receptor 2 using an Image-Based Assay - Set 3. [Related pubchem assays (depositor defined):AID2013, AID2026]; assay type: functional
[3] = biological target: G-protein coupled receptor 55 (Homo sapiens, UniProt Q9Y2T6); assay: SAR Analysis of Selective Antagonists of GPR55 using an Image-Based Assay - Set 4. [Related pubchem assays (depositor defined):AID2013, AID2026]; assay type: functional;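 further: antagonism of response to 5 µM lysophosphatidylinositol agonist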
[4] = biological target: T3, G-protein coupled receptor 35 (Homo sapiens, UniProt Q9HC97); assay: SAR analysis of Antagonists of the GPR35 Receptor using an Image-Based Assay - Set 6. [Related pubchem assays (depositor defined):AID2013, AID2026]; assay type: functional
Cannabinoid receptor 2 [5] = biological target: T2, Cannabinoid receptor 2; assay: SAR analysis of antagonists of the Cannabinoid Receptor 2 using an Image-Based Assay - Set 3. [Related pubchem assays (depositor defined):AID2013, AID2026]; assay type: functional
Cannabinoid receptor 1 [6] = biological target: T1, Cannabinoid receptor 1; assay: SAR analysis of agonists of the Cannabinoid Receptor 1 using an Image-Based Assay - Set 4. [Related pubchem assays (depositor defined):AID2013, AID2026]; assay type: functional
[7] = biological target: T3, G-protein coupled receptor 35; assay: SAR analysis of Agonists of the GPR35 Receptor using an Image-Based Assay - Set 4. [Related pubchem assays (depositor defined):AID2013, AID2026]; assay type: functional
Hexokinase = Hexokinase (Trypanosoma brucei, UniProt Q38C41); assay: Confirmation assay for inhibitors of Trypanosoma brucei hexokinase 1-Analogue-first series. [Related pubchem assays (depositor defined):AID1430, AID1632, AID2516, AID2560, AID2579, AID2600, AID449725, AID492951]; assay type: functional
Coagulation factor XII [8] = biological target: T4, Coagulation factor XII (Homo sapiens, UniProt P00748); assay: FXIIa inhibitor potency, concentration-response, biochemical (AID 716); assay type: functional
T4 sequence (P00748 whole entry): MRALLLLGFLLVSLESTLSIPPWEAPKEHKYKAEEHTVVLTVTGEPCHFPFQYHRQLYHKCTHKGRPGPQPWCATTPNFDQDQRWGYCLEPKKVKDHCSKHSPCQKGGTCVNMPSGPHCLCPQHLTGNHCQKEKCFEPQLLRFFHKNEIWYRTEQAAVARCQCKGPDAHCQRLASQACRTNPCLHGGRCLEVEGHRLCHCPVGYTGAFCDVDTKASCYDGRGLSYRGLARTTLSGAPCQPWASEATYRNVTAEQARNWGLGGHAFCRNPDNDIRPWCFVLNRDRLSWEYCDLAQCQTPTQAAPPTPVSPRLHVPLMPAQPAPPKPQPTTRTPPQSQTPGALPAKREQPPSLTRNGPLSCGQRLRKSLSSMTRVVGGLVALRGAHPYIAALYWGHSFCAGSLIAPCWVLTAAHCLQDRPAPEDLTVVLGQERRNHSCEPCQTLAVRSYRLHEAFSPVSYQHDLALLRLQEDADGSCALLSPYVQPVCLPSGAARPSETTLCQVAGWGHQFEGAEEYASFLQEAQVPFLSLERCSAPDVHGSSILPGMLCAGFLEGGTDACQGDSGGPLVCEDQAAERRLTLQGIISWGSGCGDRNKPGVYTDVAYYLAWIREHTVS

Coagulation factor XII [9] = biological target: T4, Coagulation factor XII; assay type: functional
[10] = biological target: Female germline-specific tumor suppressor gld-1 (Caenorhabditis elegans, UniProt Q17339); assay: inhibitors of GLD-1 binding to TGE RNA, dose response, biochemical, fluorescence polarization, C. elegans (AID 2802);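 further: fluorescence polarization of labeled TGE RNA bound by purified gld-1 protein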
Protein Rev = Protein Rev (Human immunodeficiency virus type 1 group M subtype B (isolate HXB2)(HIV-1), UniProt P04618); assay: inhibitors of Rev binding to RRE RNA, dose response, biochemical, fluorescence polarization, HIV-1 (AID 434976); design: species or system Human immunodeficiency virus 1
[11] = biological target: E3 ubiquitin-protein ligase XIAP (Homo sapiens, UniProt P98170); assay: Counter Screen using XIAP-Bir3 for Chemical Antagonists of Bir1/2 domains of IAP-family anti-apoptotic proteins. [Related pubchem assays (depositor defined):AID1018, AID1449, AID1514, AID1638, AID1749, AID1750, AID488957, AID488963]
[12] = biological target: T5, Ubiquitin-conjugating enzyme E2 N (Homo sapiens, UniProt P61088); assay type: functional
T5 sequence (P61088 whole entry): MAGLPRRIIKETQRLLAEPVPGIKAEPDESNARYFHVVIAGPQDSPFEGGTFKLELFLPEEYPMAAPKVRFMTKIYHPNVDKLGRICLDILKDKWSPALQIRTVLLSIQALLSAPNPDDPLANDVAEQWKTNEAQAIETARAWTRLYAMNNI

[13] = biological target: T5, Ubiquitin-conjugating enzyme E2 N; assay type: functional; remark: listed apart in the source
Bcl-2-related protein A1 = biological target: T6, Bcl-2-related protein A1 (Mus musculus, UniProt Q07440); assay type: functional;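 further: confirmatory dose–response counterscreen on Bfl-1, used to check hits from a UBC13 polyubiquitin inhibitor campaign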
T6 sequence (Q07440 whole entry): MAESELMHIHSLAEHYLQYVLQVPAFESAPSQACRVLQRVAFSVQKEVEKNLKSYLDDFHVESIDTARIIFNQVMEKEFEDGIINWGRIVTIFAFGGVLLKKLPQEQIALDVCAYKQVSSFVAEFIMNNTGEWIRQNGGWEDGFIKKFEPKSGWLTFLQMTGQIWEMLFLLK

T2 sequence (P34972 whole entry): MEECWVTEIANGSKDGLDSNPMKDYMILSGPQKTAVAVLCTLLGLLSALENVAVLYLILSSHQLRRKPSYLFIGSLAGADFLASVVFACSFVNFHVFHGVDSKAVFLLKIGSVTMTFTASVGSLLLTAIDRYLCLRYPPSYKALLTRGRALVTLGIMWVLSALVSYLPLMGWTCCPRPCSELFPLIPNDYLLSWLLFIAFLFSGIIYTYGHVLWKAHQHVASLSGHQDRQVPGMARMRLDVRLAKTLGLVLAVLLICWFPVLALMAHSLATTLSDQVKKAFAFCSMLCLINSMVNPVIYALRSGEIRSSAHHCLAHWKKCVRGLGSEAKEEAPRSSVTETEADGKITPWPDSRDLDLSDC
T1 sequence (P21554 whole entry): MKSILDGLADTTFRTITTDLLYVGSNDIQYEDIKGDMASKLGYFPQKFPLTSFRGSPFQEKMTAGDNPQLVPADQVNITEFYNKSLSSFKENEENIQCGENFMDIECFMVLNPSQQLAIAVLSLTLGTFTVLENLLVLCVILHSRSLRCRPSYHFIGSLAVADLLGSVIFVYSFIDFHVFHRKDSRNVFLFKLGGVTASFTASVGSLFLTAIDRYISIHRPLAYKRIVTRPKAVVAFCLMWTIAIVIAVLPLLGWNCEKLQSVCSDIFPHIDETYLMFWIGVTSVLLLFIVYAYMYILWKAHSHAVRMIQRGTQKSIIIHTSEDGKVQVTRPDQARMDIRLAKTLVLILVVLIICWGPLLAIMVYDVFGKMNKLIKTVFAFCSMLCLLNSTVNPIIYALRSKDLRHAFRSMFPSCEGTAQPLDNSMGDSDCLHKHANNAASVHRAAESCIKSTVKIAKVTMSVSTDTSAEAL
T3 sequence (Q9HC97 whole entry): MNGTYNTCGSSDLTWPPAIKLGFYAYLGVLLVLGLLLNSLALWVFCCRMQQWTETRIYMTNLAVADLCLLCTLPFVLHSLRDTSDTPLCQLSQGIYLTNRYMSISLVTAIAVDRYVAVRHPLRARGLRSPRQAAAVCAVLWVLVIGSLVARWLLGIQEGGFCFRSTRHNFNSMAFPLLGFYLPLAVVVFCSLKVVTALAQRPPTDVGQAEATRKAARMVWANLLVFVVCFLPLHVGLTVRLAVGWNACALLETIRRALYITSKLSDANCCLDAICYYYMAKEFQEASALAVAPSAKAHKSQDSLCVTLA
Chain of Protein Rev (P04618 whole entry): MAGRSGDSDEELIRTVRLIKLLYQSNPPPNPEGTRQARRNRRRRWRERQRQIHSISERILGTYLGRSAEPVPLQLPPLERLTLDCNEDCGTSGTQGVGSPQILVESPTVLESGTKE
Chain of Hexokinase (Q38C41 whole entry): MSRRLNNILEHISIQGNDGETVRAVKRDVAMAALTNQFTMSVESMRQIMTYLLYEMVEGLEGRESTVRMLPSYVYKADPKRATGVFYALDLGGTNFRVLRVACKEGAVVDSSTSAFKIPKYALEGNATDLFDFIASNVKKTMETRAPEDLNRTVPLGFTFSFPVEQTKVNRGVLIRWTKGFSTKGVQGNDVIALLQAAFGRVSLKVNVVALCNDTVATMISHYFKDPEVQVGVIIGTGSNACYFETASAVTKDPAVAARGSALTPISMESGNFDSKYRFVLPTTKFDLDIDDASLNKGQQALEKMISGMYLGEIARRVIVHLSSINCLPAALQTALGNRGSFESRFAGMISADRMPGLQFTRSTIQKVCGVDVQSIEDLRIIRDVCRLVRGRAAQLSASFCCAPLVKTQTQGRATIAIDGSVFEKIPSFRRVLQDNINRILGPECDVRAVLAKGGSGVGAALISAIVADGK
Chain of G-protein coupled receptor 55 (Q9Y2T6 whole entry): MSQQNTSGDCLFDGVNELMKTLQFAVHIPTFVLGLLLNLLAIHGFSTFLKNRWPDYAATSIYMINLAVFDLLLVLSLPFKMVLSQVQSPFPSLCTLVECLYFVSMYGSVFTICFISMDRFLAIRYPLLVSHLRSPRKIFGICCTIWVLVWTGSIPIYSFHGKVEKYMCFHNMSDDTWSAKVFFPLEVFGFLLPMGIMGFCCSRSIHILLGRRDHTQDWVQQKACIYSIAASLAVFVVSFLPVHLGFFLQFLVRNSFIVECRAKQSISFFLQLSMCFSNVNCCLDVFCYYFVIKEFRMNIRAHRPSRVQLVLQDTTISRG
Chain of E3 ubiquitin-protein ligase XIAP (P98170 whole entry): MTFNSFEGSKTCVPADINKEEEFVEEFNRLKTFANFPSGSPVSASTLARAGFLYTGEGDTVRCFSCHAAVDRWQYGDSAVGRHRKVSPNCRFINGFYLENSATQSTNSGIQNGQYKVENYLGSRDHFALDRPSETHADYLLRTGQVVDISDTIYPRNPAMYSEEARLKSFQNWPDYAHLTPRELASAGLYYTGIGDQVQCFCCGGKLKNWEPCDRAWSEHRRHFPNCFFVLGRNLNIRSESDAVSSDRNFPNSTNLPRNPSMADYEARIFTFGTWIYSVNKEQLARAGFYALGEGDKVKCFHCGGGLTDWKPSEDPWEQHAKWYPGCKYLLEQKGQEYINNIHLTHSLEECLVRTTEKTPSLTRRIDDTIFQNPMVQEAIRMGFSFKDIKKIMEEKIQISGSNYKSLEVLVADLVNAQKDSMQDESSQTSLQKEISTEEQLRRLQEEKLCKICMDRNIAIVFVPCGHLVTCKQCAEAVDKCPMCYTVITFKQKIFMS
Chain of Female germline-specific tumor suppressor gld-1 (Q17339 whole entry): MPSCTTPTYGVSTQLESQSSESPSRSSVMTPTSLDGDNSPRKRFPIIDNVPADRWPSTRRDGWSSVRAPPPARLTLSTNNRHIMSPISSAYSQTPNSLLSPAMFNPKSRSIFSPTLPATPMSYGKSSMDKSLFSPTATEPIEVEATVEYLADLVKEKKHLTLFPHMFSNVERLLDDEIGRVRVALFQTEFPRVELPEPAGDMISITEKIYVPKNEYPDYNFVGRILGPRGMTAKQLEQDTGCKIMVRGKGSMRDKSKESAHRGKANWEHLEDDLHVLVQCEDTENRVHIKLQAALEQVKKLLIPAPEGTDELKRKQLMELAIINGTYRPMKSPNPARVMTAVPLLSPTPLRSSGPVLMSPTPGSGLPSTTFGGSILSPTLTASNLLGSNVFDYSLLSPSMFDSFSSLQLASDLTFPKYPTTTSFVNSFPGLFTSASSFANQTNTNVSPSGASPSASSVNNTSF

With `Cc1ccc2nc3c(cc(C(=O)NC4CCCC4)c(=N)n3C3CCCC3)c(=O)n2c1` the IC50 (Cannabinoid receptor 1 [1]) was 24.9 µM (inactive), the EC50 (Cannabinoid receptor 2 [2]) was > 32 µM (inactive) and the IC50 [3] was 8.18 µM (active). The IC50 [4] was > 32 µM (inactive), the IC50 (Cannabinoid receptor 2 [5]) was > 32 µM (inactive) and the EC50 (Cannabinoid receptor 1 [6]) was > 32 µM (inactive). The EC50 [7] was > 32 µM (inactive).

With `COc1ccc(C(=O)Nc2ccc(Cl)cc2C(=O)O)cc1` the IC50 (Hexokinase) was > 25 µM (inactive).

In the case of `COc1ccc(CNc2nc(NCc3ccc(OC)cc3)n(S(C)(=O)=O)n2)cc1`, the IC50 (Coagulation factor XII [8]) is reported as > 50 µM (inactive).

In the case of `CC12CCC(C(=O)NC(c3ccccc3)c3ccccc3)(OC1=O)C2(C)C` (stereo unspecified), the IC50 (Coagulation factor XII [9]) is reported as > 50 µM (inactive).

In the case of `COCCOC(=O)c1sc(=S)n(CCOC)c1N`, the IC50 [10] is reported as 5.31 µM (active), the IC50 (Protein Rev) is reported as 11.1 µM (not active) and the IC50 [11] is reported as 0.699 µM (active).

In the case of `O=C(CCNC(=O)Cn1ccc2ccccc2c1=O)NCCN1CCN(c2cccc(Cl)c2)CC1`, the IC50 [12] is reported as 8.08 µM (active), the IC50 [13] is reported as 4.45 µM (active) and the IC50 (Bcl-2-related protein A1) is reported as > 20 µM (inactive).
